Laboratory results as given in publication PMC11062922 (Nature Chemical Biology, 2023).
Where two headings read alike, the source gives them in different places.

Legend:
CDK1/cyclinB = target: T1, CDK1/cyclinB (Homo sapiens, UniProt P06493); assay: Recombinant kinase activity assay (ProQinase, FlashPlate radiometric): CDK1/cyclinB; assay type: biochemical; settings: Enzyme CDK1_CycB1; Highest Assay Concentration 1.00E-06 M
T1 construct: purchased ProQinase
Method: (§1) Kinase activity assays were performed by ProQinase. Dose-dependent activity inhibition of CDK1/cyclinB, CK2alpha1 and CK2alpha2 were measured using a FlashPlateTM-based radiometric assay at KM (ATP) of the respective kinase.

CSNK2A1 (CK2) = target: T2, CSNK2A1 (CK2) (Homo sapiens, UniProt P68400); assay: Kinobeads two-dose competition binding: CK2 (CSNK2A1)
T2 construct: endogenous in cells

CK2alpha1 (CSNK2A1) = target: T3, CK2alpha1 (CSNK2A1) (Homo sapiens, UniProt P68400); assay: Recombinant kinase activity assay (ProQinase, FlashPlate radiometric): CK2alpha1; assay type: biochemical; settings: Enzyme CK2alpha1; Highest Assay Concentration 1.00E-06 M; read-out: IC50
T3 construct: purchased ProQinase
Method: as §1

CK2alpha2 (CSNK2A2) = target: T4, CK2alpha2 (CSNK2A2) (Homo sapiens, UniProt P19784); assay: Recombinant kinase activity assay (ProQinase, FlashPlate radiometric): CK2alpha2; assay type: biochemical
T4 construct: purchased ProQinase
Method: as §1

CSNK2A2 = CSNK2A2 (Homo sapiens, UniProt P19784); assay: Kinobeads two-dose competition binding: CSNK2A2; set-up: to maximize the representation of endogenous proteins; endogenous in cells; settings: Kinobeads two-dose screen (binding); read-out: Kdapp CSNK2A2
Text: Briefly, Kinobeads comprise seven broad-spectrum small molecule kinase inhibitors immobilized on Sepharose beads. […]. Compounds of interest are set to compete for target protein binding with Kinobeads in the lysate and the amount of a given protein bound to Kinobeads in the presence of a compound can be quantified relative to a dimethylsulfoxide (DMSO) vehicle control by label-free mass spectrometry. This assay measures the physical interaction of a compound with thousands of endogenous proteins in parallel and, when systematically increasing the concentration of competitor, enables the calculation of an apparent interaction constant ( Kdapp ) for each compound and protein.
Kinobeads pulldown experiments were performed as described previously[13],[14],[17] with minor modification. […] The protein concentration was adjusted to 5 mg ml^−1. Kinase inhibitors were spiked into 0.5 ml of cell lysate at final concentrations of 100 and 1,000 nM (or DMSO, 0.3, 1, 3, 10, 30, 100, 300 and 1,000 nM for full dose experiments). […] Lysates were incubated for 45 min at 4 °C. Subsequently, lysates were incubated with Kinobeads ε (17.5 µl of settled beads) for 30 min at 4 °C. To assess the degree of protein depletion from the lysates by Kinobeads, the flow through of the DMSO control was recovered for a pulldown of pulldown experiment where the lysate was incubated a second time with fresh Kinobeads. Beads were washed in three steps with buffer containing 0.4%, 0.2% and no IGEPAL. Bound proteins were reduced with 50 mM DTT in 8 M Urea, 40 mM Tris-HCl pH 7.4 for 30 min at room temperature. After alkylation with 55 mM chloroacetamide, the urea concentration was reduced to 1–2 M and proteins were digested with trypsin. Acidified peptides were desalted and concentrated using SepPak tC18 µEluation plates (Waters). Samples were frozen, dried by vacuum centrifugation and stored at −20 °C.
Each kinase inhibitor was processed together with all DMSO controls of the same plate. Additionally, each search was supplemented with five high quality DMSO controls for consistent peptide identification and protein grouping. The resultant file (proteinGroups.txt) was used for subsequent filtering, normalization, data visualization and target annotation that was automatically performed by a data processing pipeline built in house that used R (including the ‘drc’ and ‘heatmap’ packages). First, reverse hits, potential contaminants and not quantified proteins in the DMSO control samples were discarded. Protein raw and label-free quantification intensities were normalized to the median DMSO control intensity to obtain relative residual binding intensities for each protein group at every inhibitor concentration and standard deviations of the DMSO control intensity were calculated. IC50 values were estimated based on the following equation IC50=I×100−inhibition/inhibition where [I] is the inhibitor concentration that was used for IC50 calculation and ‘inhibition’ the relative residual binding intensity. […]. Estimated Kdapp values were then calculated by multiplying the estimated IC50 values with a protein-dependent correction factor that was limited to a maximum value of one. The correction factor accounts for the depletion of a target protein from the lysate by Kinobeads. The depletion can be measured by the ratio of the amount of protein captured in two consecutive pulldowns of the same DMSO control lysate. In this study, correction factors were determined in separate experiments using the same lysate mixture and the same bead batch. Correction factors were set to the median of all correction factors. Targets of kinase inhibitors were annotated using the previously published random forest classifier. A training data set was annotated manually. […]

IC50 (CDK1/cyclinB): > 1000 nM
potency estimated from few doses (CSNK2A1 (CK2); Kinobeads two-dose screen (binding), read-out: Kdapp CK2 (CSNK2A1)): 58 nM
CATDSCK2 (CSNK2A1 (CK2); selectivity score from Kinobeads two-dose data): 0.86
IC50 (CK2alpha1 (CSNK2A1)): 116 nM
IC50 (CK2alpha2 (CSNK2A2); Enzyme CK2alpha2, Highest Assay Concentration 1.00E-06 M, read-out: IC50): 65.3 nM
IC50 (CK2alpha2 (CSNK2A2); recombinant kinase activity assay at KM (ATP), read-out: Activity IC50 CSNK2A2): 65 nM
potency estimated from few doses (CSNK2A2): 57 nM
Compound: CONC1=NC(=O)/C(=C/c2ccc3ncccc3c2)S1 [RO4613269-000]
